ChEMBL document CHEMBL5465560, “Selectivity Literature for EUbOPEN Chemogenomic Library” (2024)
Blank lines part the entries; values can stand above or below the compound they belong to.

Legend:
[1] = target: Ribosomal protein S6 kinase beta-1 (Homo sapiens, UniProt P23443); assay: Selectivity interaction (Millipore kinase profiler) EUB0000124b RPS6KB1; settings: at 10 µM
[2] = target: T1, Fibroblast growth factor receptor 3 (Homo sapiens, UniProt P22607); assay: (§1) Selectivity interaction (Ambit KINOMEscan and KiNATiv profiling in Jurkat cells) EUB0000090b FGFR3; format: cell-based; settings: at 1 µM
T1 sequence (P22607 23-806 limits assumed): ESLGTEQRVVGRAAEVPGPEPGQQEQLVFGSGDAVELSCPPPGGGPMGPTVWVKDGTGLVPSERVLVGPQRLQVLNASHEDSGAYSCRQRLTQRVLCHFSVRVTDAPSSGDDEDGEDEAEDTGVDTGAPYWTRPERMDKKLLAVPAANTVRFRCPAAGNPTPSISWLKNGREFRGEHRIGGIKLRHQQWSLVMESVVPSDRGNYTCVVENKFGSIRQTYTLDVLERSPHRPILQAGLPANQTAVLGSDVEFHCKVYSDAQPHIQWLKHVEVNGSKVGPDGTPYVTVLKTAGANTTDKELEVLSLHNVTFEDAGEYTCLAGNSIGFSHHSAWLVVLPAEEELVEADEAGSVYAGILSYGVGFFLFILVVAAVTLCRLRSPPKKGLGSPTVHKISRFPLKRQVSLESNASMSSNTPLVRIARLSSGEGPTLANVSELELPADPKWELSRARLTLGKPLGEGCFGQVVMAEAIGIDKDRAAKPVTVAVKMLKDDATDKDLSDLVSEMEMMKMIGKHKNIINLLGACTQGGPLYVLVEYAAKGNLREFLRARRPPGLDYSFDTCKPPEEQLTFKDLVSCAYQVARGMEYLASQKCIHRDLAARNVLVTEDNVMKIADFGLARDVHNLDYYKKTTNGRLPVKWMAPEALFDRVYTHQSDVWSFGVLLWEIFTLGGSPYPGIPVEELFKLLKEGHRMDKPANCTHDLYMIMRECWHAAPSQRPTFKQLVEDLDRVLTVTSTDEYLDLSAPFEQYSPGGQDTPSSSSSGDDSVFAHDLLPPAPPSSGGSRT

[3] = tested on: Fibroblast growth factor receptor 3 (Homo sapiens), P22607 [G697C]; assay: as §1; format: cell-based; settings: at 1 µM
Fibroblast growth factor receptor 3 (Homo sapiens), P22607 [G697C], sequence (P22607 whole entry G697C): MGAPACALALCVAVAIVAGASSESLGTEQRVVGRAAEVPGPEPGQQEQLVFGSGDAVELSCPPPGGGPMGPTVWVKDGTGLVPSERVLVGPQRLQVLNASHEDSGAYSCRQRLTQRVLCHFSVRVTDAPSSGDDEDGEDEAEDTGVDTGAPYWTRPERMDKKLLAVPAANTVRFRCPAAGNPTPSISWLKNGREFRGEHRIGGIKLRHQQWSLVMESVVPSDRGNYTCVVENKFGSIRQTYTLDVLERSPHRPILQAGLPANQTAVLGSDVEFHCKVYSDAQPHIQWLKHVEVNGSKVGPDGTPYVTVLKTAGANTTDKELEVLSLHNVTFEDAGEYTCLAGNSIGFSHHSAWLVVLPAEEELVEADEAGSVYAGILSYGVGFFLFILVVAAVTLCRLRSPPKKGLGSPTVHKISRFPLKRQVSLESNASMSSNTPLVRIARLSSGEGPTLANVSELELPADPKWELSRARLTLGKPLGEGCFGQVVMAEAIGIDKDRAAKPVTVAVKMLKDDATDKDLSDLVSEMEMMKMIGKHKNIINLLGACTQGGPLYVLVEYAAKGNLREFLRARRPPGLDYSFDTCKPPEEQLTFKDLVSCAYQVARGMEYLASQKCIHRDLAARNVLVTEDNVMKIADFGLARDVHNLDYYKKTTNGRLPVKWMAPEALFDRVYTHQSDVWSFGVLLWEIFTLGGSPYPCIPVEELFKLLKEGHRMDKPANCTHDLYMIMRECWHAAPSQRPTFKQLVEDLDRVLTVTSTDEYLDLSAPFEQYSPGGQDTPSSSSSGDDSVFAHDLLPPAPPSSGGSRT

[4] = target: T2, Serine/threonine-protein kinase STK11 (Homo sapiens) (UniProt Q15831); assay: Selectivity interaction (Kinase panel (literature)) EUB0001199aCl STK11; settings: at 1 µM
T2 sequence (whole entry): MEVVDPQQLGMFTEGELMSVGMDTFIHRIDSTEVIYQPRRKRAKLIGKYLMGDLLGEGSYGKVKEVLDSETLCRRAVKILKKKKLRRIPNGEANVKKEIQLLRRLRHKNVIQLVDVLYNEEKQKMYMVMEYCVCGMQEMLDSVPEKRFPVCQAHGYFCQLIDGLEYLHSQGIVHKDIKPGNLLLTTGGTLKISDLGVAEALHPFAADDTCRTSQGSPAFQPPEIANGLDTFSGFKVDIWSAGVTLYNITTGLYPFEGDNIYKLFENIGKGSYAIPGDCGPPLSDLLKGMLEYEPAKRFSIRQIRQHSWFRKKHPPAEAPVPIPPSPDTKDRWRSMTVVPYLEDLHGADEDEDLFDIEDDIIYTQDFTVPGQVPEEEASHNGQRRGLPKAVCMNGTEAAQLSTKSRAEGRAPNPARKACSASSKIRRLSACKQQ

[5] = target: Mitogen-activated protein kinase kinase kinase 9 (Homo sapiens) (UniProt P80192); assay: Selectivity interaction (Kinase panel (Z-LYTE Assay)) EUB0001632a MAP3K9; settings: at 10 µM
Mitogen-activated protein kinase kinase kinase 9 (Homo sapiens), sequence (P80192 whole entry, looked up, canonical isoform): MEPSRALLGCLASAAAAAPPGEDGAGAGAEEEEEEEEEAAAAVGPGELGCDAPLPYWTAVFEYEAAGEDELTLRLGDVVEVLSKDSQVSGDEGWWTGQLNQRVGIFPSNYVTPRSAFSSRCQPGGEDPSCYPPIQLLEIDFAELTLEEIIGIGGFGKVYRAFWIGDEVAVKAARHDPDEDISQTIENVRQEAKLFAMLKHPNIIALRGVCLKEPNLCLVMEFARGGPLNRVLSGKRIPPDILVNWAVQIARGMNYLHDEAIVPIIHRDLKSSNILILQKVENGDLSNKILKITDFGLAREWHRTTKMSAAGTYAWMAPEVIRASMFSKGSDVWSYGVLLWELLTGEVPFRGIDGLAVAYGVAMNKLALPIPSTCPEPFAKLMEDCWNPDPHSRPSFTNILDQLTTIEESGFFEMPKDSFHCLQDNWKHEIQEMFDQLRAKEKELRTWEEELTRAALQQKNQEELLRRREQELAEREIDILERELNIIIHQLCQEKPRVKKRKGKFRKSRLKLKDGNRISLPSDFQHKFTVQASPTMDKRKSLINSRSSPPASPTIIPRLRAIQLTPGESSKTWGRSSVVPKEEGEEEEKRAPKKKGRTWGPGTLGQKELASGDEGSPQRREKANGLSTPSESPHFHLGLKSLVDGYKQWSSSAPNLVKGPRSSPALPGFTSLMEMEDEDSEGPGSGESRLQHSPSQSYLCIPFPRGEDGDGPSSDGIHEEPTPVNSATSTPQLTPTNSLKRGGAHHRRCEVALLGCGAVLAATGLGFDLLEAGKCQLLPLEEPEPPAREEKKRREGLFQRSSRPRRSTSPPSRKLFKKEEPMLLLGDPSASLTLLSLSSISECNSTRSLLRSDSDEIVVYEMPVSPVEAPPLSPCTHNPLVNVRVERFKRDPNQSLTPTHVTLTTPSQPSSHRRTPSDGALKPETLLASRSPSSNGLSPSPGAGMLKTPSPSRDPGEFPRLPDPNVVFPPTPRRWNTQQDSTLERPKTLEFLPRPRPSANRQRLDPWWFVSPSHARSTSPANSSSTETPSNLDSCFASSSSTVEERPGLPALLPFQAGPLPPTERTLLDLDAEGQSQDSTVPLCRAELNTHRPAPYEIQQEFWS

[6] = target: T3, Casein kinase I isoform alpha-like (Homo sapiens) (UniProt Q8N752); settings: at 10 µM
T3 sequence (whole entry): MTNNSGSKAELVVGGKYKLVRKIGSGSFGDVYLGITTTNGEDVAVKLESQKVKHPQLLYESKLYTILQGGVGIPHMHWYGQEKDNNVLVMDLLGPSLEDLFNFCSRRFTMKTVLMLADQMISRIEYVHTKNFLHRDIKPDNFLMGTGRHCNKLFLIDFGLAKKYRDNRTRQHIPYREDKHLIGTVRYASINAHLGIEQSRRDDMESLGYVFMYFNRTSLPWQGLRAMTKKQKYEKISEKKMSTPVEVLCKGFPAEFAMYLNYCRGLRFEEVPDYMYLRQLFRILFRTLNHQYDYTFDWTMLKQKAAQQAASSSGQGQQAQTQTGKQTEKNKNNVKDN

[7] = target: T4, Serine/threonine-protein kinase Nek2 (Homo sapiens) (UniProt P51955); settings: at 10 µM
T4 sequence (whole entry): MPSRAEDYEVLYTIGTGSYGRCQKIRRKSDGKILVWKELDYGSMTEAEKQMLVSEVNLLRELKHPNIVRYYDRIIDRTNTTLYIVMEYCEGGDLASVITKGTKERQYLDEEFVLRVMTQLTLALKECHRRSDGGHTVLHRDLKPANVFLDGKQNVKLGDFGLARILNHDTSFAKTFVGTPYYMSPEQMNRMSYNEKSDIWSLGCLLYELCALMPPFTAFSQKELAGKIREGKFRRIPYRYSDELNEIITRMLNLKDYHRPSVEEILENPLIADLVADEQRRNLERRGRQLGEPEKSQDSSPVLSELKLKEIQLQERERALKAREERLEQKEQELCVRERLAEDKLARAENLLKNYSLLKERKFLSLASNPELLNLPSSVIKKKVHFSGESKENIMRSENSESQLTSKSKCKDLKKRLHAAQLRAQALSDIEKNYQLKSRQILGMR

[8] = target: T1, Fibroblast growth factor receptor 3; assay: (§2) Selectivity interaction (ProQinase) EUB0000171b FGFR3
[9] = tested on: Fibroblast growth factor receptor 3 (Homo sapiens), P22607 [K650M]; assay: as §2
Fibroblast growth factor receptor 3 (Homo sapiens), P22607 [K650M], sequence (P22607 whole entry K650M): as the sequence (P22607 whole entry G697C) above, with K650M, C697G counted along it

[10] = tested on: Fibroblast growth factor receptor 3 (Homo sapiens), P22607 [K650E]; assay: as §2
Fibroblast growth factor receptor 3 (Homo sapiens), P22607 [K650E], sequence (P22607 whole entry K650E): as the sequence (P22607 whole entry G697C) above, with K650E, C697G counted along it

[11] = tested on: Fibroblast growth factor receptor 3 (Homo sapiens), P22607 [G697C]; assay: as §2
[12] = target: T5, Protein kinase C epsilon type (Homo sapiens) (UniProt Q02156); assay: Selectivity interaction (KinomeScan (DiscoverX)) EUB0000618a PRKCE; settings: at 10 µM
T5 sequence (whole entry): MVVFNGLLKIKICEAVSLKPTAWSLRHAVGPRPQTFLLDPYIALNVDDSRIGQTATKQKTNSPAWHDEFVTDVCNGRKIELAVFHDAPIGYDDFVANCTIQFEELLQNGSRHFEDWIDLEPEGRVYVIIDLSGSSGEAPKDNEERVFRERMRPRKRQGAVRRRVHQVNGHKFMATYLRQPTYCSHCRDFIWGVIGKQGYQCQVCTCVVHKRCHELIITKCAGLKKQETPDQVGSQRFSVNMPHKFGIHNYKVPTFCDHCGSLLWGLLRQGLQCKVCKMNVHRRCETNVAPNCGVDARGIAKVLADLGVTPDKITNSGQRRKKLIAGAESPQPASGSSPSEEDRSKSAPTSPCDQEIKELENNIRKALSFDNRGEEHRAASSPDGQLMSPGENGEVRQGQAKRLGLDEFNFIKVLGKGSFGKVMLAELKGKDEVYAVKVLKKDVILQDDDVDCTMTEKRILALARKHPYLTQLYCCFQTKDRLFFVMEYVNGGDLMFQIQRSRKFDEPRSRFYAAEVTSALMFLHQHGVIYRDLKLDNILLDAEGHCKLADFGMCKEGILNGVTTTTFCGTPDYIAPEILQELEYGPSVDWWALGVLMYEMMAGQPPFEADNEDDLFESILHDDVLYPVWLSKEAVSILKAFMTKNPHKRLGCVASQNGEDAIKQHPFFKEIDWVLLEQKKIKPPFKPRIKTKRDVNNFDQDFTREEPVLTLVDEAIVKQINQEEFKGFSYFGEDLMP

Ribosomal protein S6 kinase beta-1, sequence (P23443 whole entry, looked up): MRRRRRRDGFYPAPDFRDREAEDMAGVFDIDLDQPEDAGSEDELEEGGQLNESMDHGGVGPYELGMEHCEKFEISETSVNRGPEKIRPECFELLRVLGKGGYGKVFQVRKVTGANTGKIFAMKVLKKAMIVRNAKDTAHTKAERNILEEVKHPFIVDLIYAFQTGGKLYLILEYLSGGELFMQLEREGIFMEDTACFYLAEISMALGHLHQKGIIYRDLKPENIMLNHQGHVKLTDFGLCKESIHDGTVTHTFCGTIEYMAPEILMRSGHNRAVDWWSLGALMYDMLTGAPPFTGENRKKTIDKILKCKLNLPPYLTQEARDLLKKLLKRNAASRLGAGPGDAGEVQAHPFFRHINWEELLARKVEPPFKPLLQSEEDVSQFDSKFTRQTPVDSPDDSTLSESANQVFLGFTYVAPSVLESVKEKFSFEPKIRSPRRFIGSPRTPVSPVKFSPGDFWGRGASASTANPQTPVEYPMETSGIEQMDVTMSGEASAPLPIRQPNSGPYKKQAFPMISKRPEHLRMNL

SMILES: CC(=O)Nc1cccc(-n2c(=O)n(C3CC3)c(=O)c3c(Nc4ccc(I)cc4F)n(C)c(=O)c(C)c32)c1
% of control [1]: 104%

SMILES: CN(C)C/C=C/C(=O)Nc1ccc(C(=O)N2CCCC(Nc3ncc(Cl)c(-c4c[nH]c5ccccc45)n3)C2)cc1 (stereo unspecified)
% of control [2]: 92%
% of control [3]: 72%

SMILES: CCN(CC)CCCCNc1ncc2cc(-c3cc(OC)cc(OC)c3)c(NC(=O)NC(C)(C)C)nc2n1
% of control [6]: 100%

SMILES: COCC(=O)NC/C=C/c1ccc2ncnc(Nc3ccc(Oc4ccc(C)nc4)c(C)c3)c2c1 [CP-724714]
% of control [7]: 100%

SMILES: C=CC(=O)Nc1cccc(C(=O)Nc2ccc(Nc3cc(-c4[nH]c(SC)nc4C)ccn3)cc2)c1
% of control ([8]; at 1 µM): 98%
% of control ([8]; at 5 µM): 78%
% of control ([9]; at 1 µM): 97%
% of control ([9]; at 5 µM): 72%
% of control ([10]; at 1 µM): 104%
% of control ([10]; at 5 µM): 79%
% of control ([11]; at 1 µM): 103%
% of control ([11]; at 5 µM): 83%

SMILES: O[C@H]1CC[C@H](Nc2ncc3nc(Nc4c(F)cc(F)cc4F)n([C@H]4CCOC4)c3n2)CC1
% of control [12]: 98%

The remaining lines, values ahead:

% of inhibition [4]: 3%
SMILES: CN1Cc2nccc(-c3cn(C)nc3-c3ccc(F)cc3)c2C1=O

% of control [5]: -5.34%
SMILES: Cn1cc(-n2cnc3c(NCc4nc5cc(Cl)c(Cl)cc5[nH]4)nc(N4CCOCC4)nc32)cn1
